Test results: paper PMC10253456, “Investigating the Contribution of Major Drug-Metabolising Enzymes to Possum-Specific Fertility Control” (International Journal of Molecular Sciences, 2023)
Read-outs that look alike come from different tables or passages of the source.

Experiments:
[1] = test system: UGT isoforms of the UGT1 and UGT2B families; parameters: method as in PMID 25008344; conditions: pooled human liver and intestinal microsomes; read-out: concentration reducing glucuronidation of 4-methylumbelliferone by ~50% of the control; cited from earlier work
UGT2B [2] = assay: p-nitrophenol glucuronidation activity in mouse liver microsomes
UGT2B (heading: UGT2B4) [3] = assay: in vitro; conditions: human, pH 7.4
UGT2B (heading: UGT2B4) [4] = assay: in vitro; conditions: avian (mallards and a swan), pH 7.4
CYP3A [5] = assay: CYP3A catalytic activity (erythromycin N-demethylation) in mouse liver microsomes; conditions: for Percent control catalytic activity at estimated IC50 / Percent control catalytic activity at estimated 2-fold IC50: mouse liver microsomes, initial screen n=1; for Percent control catalytic activity at estimated IC50: compounds without reported IC50 at 1 µM; for Percent control catalytic activity at estimated 2-fold IC50: compounds without reported IC50 at 5 µM
Procedure: (§1) Possums were collected from the Otago Peninsula (Dunedin) and the Okuti Valley, Banks Peninsula (Christchurch) in New Zealand in collaboration with the Otago Peninsula Biodiversity Group and Manaaki Whenua-Landcare Research, respectively. […] Possums were caged and humanely killed by a blow to the head, and the livers were harvested, snap-frozen in liquid nitrogen, and stored in a freezer at −80 °C until the preparation of microsomal fractions. […] Mice were euthanised by carbon dioxide inhalation and the livers were removed and microsomes prepared. […] The livers from avian species (mallards and a swan) were kindly donated by a local bird hunting group based in Dunedin, New Zealand. The livers from avian species were treated similarly to those mentioned above for the possum samples.
(§2) Microsomal preparation was carried out as previously described [76]. […] All procedures were performed at 0–4 °C. The liver samples were minced and homogenised in Buffer A (0.1 M Tris, 0.1 M potassium chloride, 1 mM EDTA, and 20 μM butylated hydroxytoluene, at pH = 7.4) using the Teflon-glass homogeniser (5–6 vertical passes). The samples were centrifuged at 10,000× g for 20 min. The supernatant was then transferred into another set of centrifuge tubes and spun at 100,000× g for 60 min. The pellet was resuspended in Buffer B (0.1 M potassium pyrophosphate, 1 mM EDTA, and 20 μM butylated hydroxytoluene, at pH = 7.4), homogenised, and recentrifuged at 100,000× g for 60 min. Finally, the pellet was homogenised in 1–2 mL of Buffer C (10 mM Tris-HCl, 1 mM EDTA, and 4% glycerol (v/v)), and stored at −80 °C until use. The protein concentration of the microsomes was determined using the bicinchoninic acid (BCA) method [77].
(§3) CYP3A catalytic activity was determined using the erythromycin N-demethylation activity assay, as described [78]. The reaction mixture (final volume of 1 mL and final protein concentration of 1 mg) contained 500 µL of microsomes in 0.1 M phosphate buffer (pH 7.4) and 400 µL of erythromycin buffer (0.45 mM), and 50 µL of the test compound was pre-warmed at 37 °C for 2 min. The reaction was initiated with 50 µL of 2.5 mM nicotinamide adenine dinucleotide phosphate (NADP^+) and incubated for 30 min at 37 °C. […] The tubes were vortexed and left for 5 min (at room temperature), and then 330 µL of saturated barium hydroxide was added. The tubes were further vortexed and left for 5 min (at room temperature). The tubes were then centrifuged at 1800× g for 10 min. To 830 µL of the supernatant, 330 µL of Nash reagent (30% (w/v) ammonium acetate, 0.4% (v/v) acetylacetone) was added and further incubated for 30 min at 60 °C. The blank tube contained 330 µL of Nash reagent and 830 µL of Milli-Q water. […] The CYP3A activities were determined in nmol/mg/min using standard curve data. Results presented are the mean ± SEM of 3 independent experiments performed in duplicate unless otherwise stated.

UGT2B [6] = conditions: avian; compound at estimated 2-fold IC50
UGT2B [7] = assay: p-nitrophenol glucuronidation activity in possum liver microsomes; assay type: biochemical, possum (Trichosurus vulpecula); conditions: compound at estimated 2-fold IC50
UGT2B (heading: UGT2B4) [8] = assay: as above; assay type: biochemical, possum (Trichosurus vulpecula); conditions: possum (Trichosurus vulpecula)
CYP3A [9] = assay: CYP3A catalytic activity (erythromycin N-demethylation) in possum liver microsomes; conditions: for Percent control catalytic activity at estimated IC50 / Percent control catalytic activity at estimated 2-fold IC50: possum liver microsomes, initial screen n=1; for Percent control catalytic activity at estimated IC50: compounds without reported IC50 at 1 µM; for Percent control catalytic activity at estimated 2-fold IC50: compounds without reported IC50 at 5 µM
Procedure: as §1, §2, §3
UGT2B (heading: UGT2B4) [10] = assay: in vitro; conditions: BALB/c, mouse, pH 7.4
UGT2B [11] = assay: p-nitrophenol glucuronidation activity in pooled human liver microsomes
CYP3A [12] = conditions: avian; compound at estimated 2-fold IC50 (5 µM where none reported)
UGT2B (heading: UGT2B4) [13] = assay: p-nitrophenol glucuronidation activity in mouse liver microsomes; conditions: BALB/c, mouse
CYP3A [14] = assay: CYP3A catalytic activity (erythromycin N-demethylation) in pooled human liver microsomes; conditions: compound at estimated 2-fold IC50 (5 µM where none reported)
Procedure: as §3
UGT2B (heading: UGT2B4) [15] = assay: p-nitrophenol glucuronidation activity in pooled human liver microsomes; conditions: human, pooled human liver microsomes (50 donors), pH 7.4, probe p-nitrophenol (0.5 mM final, from 50 µL of 5 mM in 500 µL)
[16] = test system: UGT2B4, UGT2B7, UGT2B15, and UGT2B17; conditions: cited from earlier work
[17] = mouse, compound at estimated 2-fold IC50
[18] = liver microsomes, pH 7.4, probe p-nitrophenol (0.5 mM final, from 50 µL of 5 mM in 500 µL), compound at estimated IC50, read-out: % of control (UGT2B4 catalytic activity at IC50)
[19] = pooled human liver microsomes, compound at estimated 2-fold IC50
[20] = mouse, compound at estimated 2-fold IC50 (5 µM where none reported)
[21] = possum, compound at estimated 2-fold IC50 (5 µM where none reported)

SMILES | % of control (UGT2B4 catalytic activity at 2-fold IC50) (UGT2B [2]; [17]) | UGT2B4 catalytic activity at 2-fold IC50 (UGT2B [2]; [17]) [µmol/mg/min] | activity (UGT2B (heading: UGT2B4) [3]) [%] | activity at 30 min (UGT2B (heading: UGT2B4) [4]) [%] | Percent control catalytic activity at estimated IC50 (CYP3A [5]) [percent control] | Percent control catalytic activity at estimated 2-fold IC50 (CYP3A [5]) [percent control] | % of control (UGT2B4 catalytic activity at 2-fold IC50) (UGT2B [6]) | UGT2B4 catalytic activity at 2-fold IC50 (UGT2B [6]) [µmol/mg/min] | % of control (UGT2B4 catalytic activity at 2-fold IC50) (UGT2B [7]) | UGT2B4 catalytic activity at 2-fold IC50 (UGT2B [7]) [µmol/mg/min] | activity at 30 min (UGT2B (heading: UGT2B4) [8]; [18]) [%] | Percent control catalytic activity at estimated IC50 (CYP3A [9]) [percent control] | Percent control catalytic activity at estimated 2-fold IC50 (CYP3A [9]) [percent control] | activity (UGT2B (heading: UGT2B4) [10]) [%] | % of control (UGT2B4 catalytic activity at 2-fold IC50) (UGT2B [11]; [19]) | UGT2B4 catalytic activity at 2-fold IC50 (UGT2B [11]; [19]) [µmol/mg/min] | UGT2B4 catalytic activity at 2-fold IC50 (UGT2B [2]) | UGT2B4 catalytic activity at 2-fold IC50 (UGT2B [11]) | further results
COc1cc([C@@H]2Oc3cc([C@H]4Oc5cc(O)cc(O)c5C(=O)[C@@H]4O)ccc3O[C@H]2CO)ccc1O [silybin B] |  |  |  |  |  |  |  |  |  |  |  |  |  |  |  |  |  |  | IC50 [1]: 87 µM
CC(=O)O[C@H](CC=C(C)C)C1=CC(=O)c2c(O)ccc(O)c2C1=O [Acetylshikonin] | 94 % of control | 2.92 ± 0.22 | 98 | 87 | 100 | 93 | 84 % of control | 0.53 ± 0.08 | 101 % of control | 3.70 ± 0.18 | 96 | 128 | 112 | 93 | 100 % of control | 3.70 |  |  | 
O=c1cc(-c2ccccc2)oc2cc(O)c(O)c(O)c12 [Baicalein] |  |  | 97 | 56 | 114 | 99 | 44 % of control | 0.17 ± 0.06 | 106 % of control | 3.91 ± 0.20 |  | 102 | 112 | 96 |  |  | 3.08±0.04 | 3.95 | % of control (UGT2B4 catalytic activity at 2-fold IC50) (UGT2B [2]): 95; activity at 30 min (UGT2B (heading: UGT2B4) [8]; pH 7.4, compound at estimated IC50, read-out: % of control (UGT2B4 catalytic activity at IC50)): 105%
Nc1ccc(S(=O)(=O)Nc2ccnn2-c2ccccc2)cc1 [Sulfaphenazole] | 94 % of control |  | 102 | 74 | 96 | 100 | 74 % of control | 0.57 ± 0.14 | 99 % of control | 3.59 ± 0.23 | 105 | 93 | 84 |  |  |  | 2.27 ± 0.02 µmol/mg/min | 3.38 µmol/mg/min | % of control (catalytic activity at 2-fold IC50) (CYP3A [12]): 110 % of control; Catalytic activity at 2-fold IC50 (CYP3A [12]): 0.33 ± 0.06 nmol/mg/min; activity at 30 min (UGT2B (heading: UGT2B4) [13]; liver microsomes, pH 7.4, probe p-nitrophenol (0.5 mM final, from 50 µL of 5 mM in 500 µL)): 103%; % of control (catalytic activity at 2-fold IC50) (CYP3A [5]; [20]): 109 % of control; Catalytic activity at 2-fold IC50 (CYP3A [5]; [20]): 0.68 ± 0.06 nmol/mg/min; % of control (catalytic activity at 2-fold IC50) (CYP3A [14]): 105 % of control; Catalytic activity at 2-fold IC50 (CYP3A [14]): 0.47 nmol/mg/min; % of control (catalytic activity at 2-fold IC50) (CYP3A [9]; [21]): 111 % of control; Catalytic activity at 2-fold IC50 (CYP3A [9]; [21]): 0.37 ± 0.04 nmol/mg/min; % of control (UGT2B4 catalytic activity at 2-fold IC50) (UGT2B [11]): 98
CC(C)=CCC[C@](C)(O[C@@H]1O[C@H](CO)[C@@H](O)[C@H](O)[C@H]1O)[C@H]1CC[C@]2(C)[C@@H]1[C@H](O)C[C@@H]1[C@@]3(C)CC[C@H](O)C(C)(C)[C@@H]3[C@@H](O)C[C@]12C [Ginsenoside F1] | 157 % of control | 4.36 ± 0.01 | 101 | 110 | 82 |  | 99 % of control | 0.66 ± 0.14 | 109 % of control | 4.14 ± 0.18 | 100 | 120 |  | 132 | 100 % of control | 4.01 |  |  | 
COc1cc([C@@H]2Oc3ccc([C@H]4Oc5cc(O)cc(O)c5C(=O)[C@@H]4O)cc3O[C@H]2CO)ccc1O [isosilybin B] |  |  |  |  |  |  |  |  |  |  |  |  |  |  |  |  |  |  | IC50 [1]: 187 µM
CCC(C)n1ncn(-c2ccc(N3CCN(c4ccc(OCC5COC(Cn6cncn6)(c6ccc(Cl)cc6Cl)O5)cc4)CC3)cc2)c1=O (stereo not drawn) [Itraconazole] |  |  |  | 118 | 91 | 91 | 94 % of control | 0.35 ± 0.05 | 102 % of control | 3.06 ± 0.25 | 102 | 141 | 120 |  |  |  | 1.99 ± 0.24 µmol/mg/min | 2.80 µmol/mg/min | % of control (UGT2B4 catalytic activity at 2-fold IC50) (UGT2B [2]): 106; activity at 30 min (UGT2B (heading: UGT2B4) [13]; pH 7.4): 125%; % of control (UGT2B4 catalytic activity at 2-fold IC50) (UGT2B [11]): 88; activity at 30 min (UGT2B (heading: UGT2B4) [15]): 95%
C[C@@H]1CC[C@H]2C(C)(C)[C@H]3C[C@@]12CC[C@@]3(C)O [Cedrol] | 84 % of control | 2.57 ± 0.16 |  | 96 | 90 | 62 | 91 % of control | 0.56 ± 0.13 | 92 % of control | 3.78 ± 0.13 | 93 | 107 | 99 |  | 98 % of control | 3.85 |  |  | activity at 30 min (UGT2B (heading: UGT2B4) [13]; pH 7.4): 84%; activity at 30 min (UGT2B (heading: UGT2B4) [15]): 98%
CC(C)(c1ccc(O)cc1)c1ccc(O)cc1 [bisphenol A] |  |  |  |  |  |  |  |  |  |  |  |  |  |  |  |  |  |  | type of inhibition ([16]; UGT2B4): competitive; type of inhibition ([16]; UGT2B7, UGT2B15, and UGT2B17): non-competitive
